# In article PMC9979347 (ACS Omega, 2023):
# Values joined by “and” are separate entries in the source; they are usually repeats but may differ in a detail not shown here. Equal values may be shown once. “Also recorded” adds a separate entry of the source. Read-outs that look alike come from different tables or passages of the source.
# Tests used:
# [1] = tested on: K-562; test: NCI-60 SRB screen; type: cell-based; conditions: Homo sapiens, K562, 48 h
# [2] = target: hCA I (Homo sapiens, UniProt P00915); test: stopped-flow CO2 hydration inhibition assay; type: biochemical
# Sequence of hCA I (P00915 whole entry): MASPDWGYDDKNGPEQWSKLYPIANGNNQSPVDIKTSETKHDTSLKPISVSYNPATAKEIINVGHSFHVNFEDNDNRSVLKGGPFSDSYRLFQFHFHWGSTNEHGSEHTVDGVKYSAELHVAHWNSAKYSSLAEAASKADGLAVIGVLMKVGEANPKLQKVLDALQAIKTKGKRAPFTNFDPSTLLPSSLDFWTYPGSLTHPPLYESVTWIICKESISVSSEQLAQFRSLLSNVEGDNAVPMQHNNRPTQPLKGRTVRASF
# [3] = tested on: SR; test: NCI-60 SRB screen; type: cell-based, human; conditions: five-dose, 48 h
# [4] = target: hCA II (Homo sapiens, UniProt P00918); test: stopped-flow CO2 hydration inhibition assay; type: biochemical
# [5] = target: hCA IX (Homo sapiens, UniProt Q16790); test: biochemical; type: biochemical
# [6] = tested on: HCT116 cells; test: cell cycle analysis by propidium iodide flow cytometry; type: cell-based, human; conditions: HCT116, 2.94 μM, 24 h
# [7] = tested on: HCT116 cells; test: Annexin V-FITC/PI apoptosis assay; type: cell-based, human; conditions: HCT116, 2.94 μM, 24 h
# [8] = tested on: ROS level in HCT116 cells; test: reactive oxygen species fluorometric assay; type: cell-based, human; conditions: HCT116, 2.94 μM
# [9] = tested on: Nrf2 in HCT116 cell nuclei; test: Nrf2 transcription factor ELISA on nuclear protein; type: cell-based, human
# [10] = target: T1, recombinant Pim-1 kinase (Homo sapiens, UniProt P11309)
# T1 sequence (P11309 whole entry): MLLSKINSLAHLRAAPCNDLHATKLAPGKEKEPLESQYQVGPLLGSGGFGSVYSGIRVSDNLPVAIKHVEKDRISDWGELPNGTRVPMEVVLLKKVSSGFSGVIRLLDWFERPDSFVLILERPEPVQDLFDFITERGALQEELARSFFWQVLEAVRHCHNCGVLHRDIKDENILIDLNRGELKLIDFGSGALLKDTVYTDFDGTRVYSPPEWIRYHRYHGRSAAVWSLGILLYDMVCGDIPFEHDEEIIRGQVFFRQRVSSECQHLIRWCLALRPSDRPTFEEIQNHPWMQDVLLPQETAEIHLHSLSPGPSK
# [11] = tested on: HEK293T cells; conditions: for selectivity against colorectal carcinoma HCT116 cells: HEK293T IC50 versus HCT116 GI50; for average cancer cell fold selectivity: HEK293T IC50 versus average NCI-60 GI50; for IC50: read-out: IC50 (μM ± SD) normal HEK293T cells, MTT, 48 h, triplicate; for cancer cell selectivity compared to non-cancerous HEK293T cells: up to
# [12] = tested on: HEK293T cells; test: cells; conditions: Homo sapiens, HEK-293T, 48 h, read-out: IC50 (μM ± SD) normal HEK293T cells, MTT, 48 h, triplicate
# [13] = tested on: hypoxic HCT116 cells; test: cells; conditions: Homo sapiens, HCT-116, 48 h, read-out: Cytotoxicity IC50 (μM ± SD) HCT116
# [14] = tested on: hypoxic U251 cells; test: cells; conditions: Homo sapiens, U-251, 48 h, read-out: Cytotoxicity IC50 (μM ± SD) U251
# [15] = tested on: hypoxic LOX IMVI cells; test: cells; conditions: Homo sapiens, 48 h, read-out: Cytotoxicity IC50 (μM ± SD) LOX IMVI
# [16] = target: T1, recombinant Pim-1 kinase; test: biochemical; conditions: Pim-1 kinase IC50 (μM ± SD), ADP-Glo
# [17] = target: hCA XII (Homo sapiens, UniProt O43570); test: biochemical
# Sequence of hCA XII (O43570 25-354): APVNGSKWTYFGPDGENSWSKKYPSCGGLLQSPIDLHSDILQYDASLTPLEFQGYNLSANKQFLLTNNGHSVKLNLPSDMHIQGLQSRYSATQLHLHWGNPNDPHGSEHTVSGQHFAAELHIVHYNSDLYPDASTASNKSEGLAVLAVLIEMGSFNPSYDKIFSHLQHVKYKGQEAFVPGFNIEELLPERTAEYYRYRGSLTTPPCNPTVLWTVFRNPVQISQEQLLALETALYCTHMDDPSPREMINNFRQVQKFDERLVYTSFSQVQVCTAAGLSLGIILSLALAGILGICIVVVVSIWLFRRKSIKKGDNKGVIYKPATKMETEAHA
# [18] = tested on: hCA I, II, IX, and XII; test: stopped-flow CO2 hydration inhibition assay, across the four isoforms; type: biochemical, human
# [19] = tested on: HCT15; test: NCI-60 SRB screen; type: cell-based; conditions: Homo sapiens, HCT-15, 48 h
smiles,measurement,setting,value
"COc1ccc(C(=O)/C=C/c2cc3c(cc2Br)OCO3)cc1S(N)(=O)=O [4l, 5-[(2E)-3-(6-Bromo-2H-1,3-benzodioxol-5-yl)prop-2-enoyl]-2-methoxybenzene-1-sulfonamide]",GI50,[1],0.45 µM
same,Ki,[2],> 10 µM
"COc1ccc(C(=O)/C=C/c2ccc(Cl)c(Cl)c2)cc1S(N)(=O)=O [4i, 5-[(2E)-3-(3,4-Dichlorophenyl)prop-2-enoyl]-2-methoxybenzene-1-sulfonamide]",GI50,[3],sub-micromolar
"COc1ccc(C(=O)/C=C/c2cccc3ccccc23)cc1S(N)(=O)=O [4j, 2-Methoxy-5-[(2E)-3-(naphthalen-1-yl)prop-2-enoyl]benzene-1-sulfonamide]",GI50,[3],sub-micromolar
same,Ki,[2],> 10 µM
same,Ki,[4],> 10 µM
same,selectivity to hCA IX over hCA I and hCA II / other tested isoforms,[5],ca. six-fold selectivity; also recorded: more than six-fold selective; also recorded: greater than six-fold selectivity
same,cell cycle arrest phase,[6],arrested the cell cycle of HCT116 cells at the G1/S phase; also recorded: arresting cell growth at the G1/S phase
same,percentage of cells at the G2/M phase,[6],6%
same,percentage of cells in G1 (G0-G1) phase,[6],52%
same,percentage of cells in S phase,[6],42%
same,early apoptosis,[7],8.3%
same,fold increase of total apoptotic cells versus control,[7],25 fold
same,late apoptosis,[7],27.8%
same,total apoptotic cells,[7],39.5%
same,ROS level increase compared to DMSO-treated cells,[8],ca. 50%
same,fold increase in transcriptionally active nuclear Nrf2,"[9]; HCT116, 2.94 μM, versus DMSO",ca. 3.3 fold
same,Nrf2 (ng/mL ± SD),"[9]; HCT116 nuclei, 2.94 μM, control 0.89",2.92 ng/mL
same,fold more potent than staurosporine on Pim-1 kinase,[10],ca. 1.4 fold
same,selectivity against colorectal carcinoma HCT116 cells,[11],~15 fold
same,average cancer cell fold selectivity,[11],~9 fold
same,IC50,[11],20.4 ± 0.94 µM
same,cancer cell selectivity compared to non-cancerous HEK293T cells,[11],up to 50 fold
same,IC50,[12],~20 µM
same,IC50,[13],2.94 ± 0.19 µM
same,IC50,[14],4.6 ± 0.26 µM
same,IC50,[15],12.1 ± 0.54 µM
same,IC50,[16],~0.34 µM and 0.34 µM
"COc1ccccc1/C=C/C(=O)c1ccc(OC)c(S(N)(=O)=O)c1 [4e, 2-Methoxy-5-[(2E)-3-(2-methoxyphenyl)prop-2-enoyl]benzene-1-sulfonamide]",GI50,[1],0.35 µM
"COc1ccc(C(C)=O)cc1S(N)(=O)=O [compound 3, 5-acetyl-2-methoxybenzene-1-sulfonamide]",Ki,[2],2.32 µM
same,Ki,[4],4.59 µM
same,Ki,[5],1.39 µM
same,Ki,[17],5.25 µM
"COc1ccc(C(=O)/C=C/c2cccc(Br)c2)cc1S(N)(=O)=O [4d, 5-[(2E)-3-(3-Bromophenyl)prop-2-enoyl]-2-methoxybenzene-1-sulfonamide]",GI50,[3],sub-micromolar
same,Ki,[2],0.85 µM
same,Ki,[4],0.5 µM
same,selectivity toward hCA I and hCA II over hCA IX and hCA XII,[18],ca. 10 fold
same,Ki,"[18]; read-out: average Ki value against the four tested isoforms, hCA I, II, IX, XII",4 µM
same,selectivity against colorectal carcinoma HCT116 cells,[11],ca. 50 fold
same,average cancer cell fold selectivity,[11],ca. 20 fold
same,IC50,[11],52.7 ± 2.03 µM
same,cancer cell selectivity compared to non-cancerous HEK293T cells,[11],up to 50 fold
same,IC50,[12],~53 µM
same,IC50,[13],6.32 ± 0.38 µM
same,IC50,[14],14.8 ± 0.61 µM
same,IC50,[15],38.3 ± 1.63 µM
same,IC50,[16],~1.06 µM and 1.06 µM
"COc1ccc(C(=O)/C=C/c2ccccc2Cl)cc1S(N)(=O)=O [4a, 5-[(2E)-3-(2-Chlorophenyl)prop-2-enoyl]-2-methoxybenzene-1-sulfonamide]",Ki,[2],> 10 µM
same,Ki,[4],> 10 µM
same,Ki,[5],> 10 µM
same,Ki,[17],> 10 µM
"COc1ccc(C(=O)/C=C/c2ccc3ccccc3c2)cc1S(N)(=O)=O [4k, 2-Methoxy-5-[(2E)-3-(Naphthalen-2-Yl)Prop-2-Enoyl]Benzene-1-Sulfonamide]",GI50,[3],sub-micromolar
same,GI50,[19],0.58 µM
same,Ki,[2],> 10 µM
same,Ki,[4],> 10 µM
same,Ki,[5],> 10 µM
same,Ki,[17],> 10 µM
"COc1ccc(C(=O)/C=C/c2ccccc2Br)cc1S(N)(=O)=O [4c, 5-[(2E)-3-(2-Bromophenyl)prop-2-enoyl]-2-methoxybenzene-1-sulfonamide]",Ki,[2],> 10 µM
same,Ki,[4],> 10 µM
same,Ki,[5],4.71 µM
same,Ki,[17],> 10 µM
"COc1ccc(C(=O)/C=C/c2cccc(Cl)c2)cc1S(N)(=O)=O [4b, 5-[(2E)-3-(3-Chlorophenyl)prop-2-enoyl]-2-methoxybenzene-1-sulfonamide]",GI50,[3],sub-micromolar
same,Ki,[2],> 10 µM
same,Ki,[4],> 10 µM
same,Ki,[5],> 10 µM
same,Ki,[17],> 10 µM
